Values joined by “and” are separate entries in the source; they are usually repeats but may differ in a detail not shown here. Equal values may be shown once. Inconclusive results and toxic doses are left out. Rule for the calls: active = survival T/C of 150% or more; inactive = T/C below 125% in these data.
Test system: CD2F1 mice, L1210 leukemia ip, survival T/C
Assay: NCI In Vivo Anticancer Drug Screen. Data for tumor model L1210 Leukemia (intraperitoneal) in CD2F1 (CDF1) mice
Conditions: higher = longer survival
How it was run: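 Antitumor effect is scored in animals hosting a serially transplanted tumor. Values compare compound-dosed animals against vehicle-only controls as a simple quotient.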

[1] = endpoint: mean survival time, dose: 6.25 mg/kg/injection, schedule: Q01DX009 (ip), vehicle: saline with Tween-80
[2] = endpoint: mean survival time, dose: 12.5 mg/kg/injection, schedule: Q01DX009 (ip), vehicle: saline with Tween-80
[3] = endpoint: mean survival time, dose: 25.0 mg/kg/injection, schedule: Q01DX009 (ip), vehicle: saline with Tween-80
[4] = endpoint: mean survival time, dose: 100.0 mg/kg/injection, schedule: Q04DX003 (ip), vehicle: saline with Tween-80
[5] = endpoint: mean survival time, dose: 200.0 mg/kg/injection, schedule: Q04DX003 (ip), vehicle: saline with Tween-80
[6] = endpoint: mean survival time, dose: 12.5 mg/kg/injection, schedule: Q01DX009 (ip), vehicle: water
[7] = endpoint: mean survival time, dose: 25.0 mg/kg/injection, schedule: Q01DX009 (ip), vehicle: water
[8] = endpoint: mean survival time, dose: 50.0 mg/kg/injection, schedule: Q01DX009 (ip), vehicle: water
[9] = endpoint: mean survival time, dose: 100.0 mg/kg/injection, schedule: Q01DX009 (ip), vehicle: water
[10] = endpoint: mean survival time, dose: 50.0 mg/kg/injection, schedule: Q01DX009 (ip), vehicle: saline with Tween-80
[11] = endpoint: mean survival time, dose: 100.0 mg/kg/injection, schedule: Q01DX009 (ip), vehicle: saline with Tween-80
[12] = endpoint: mean survival time, dose: 200.0 mg/kg/injection, schedule: Q01DX009 (ip), vehicle: saline with Tween-80
[13] = endpoint: mean survival time, dose: 400.0 mg/kg/injection, schedule: Q01DX009 (ip), vehicle: saline with Tween-80
[14] = endpoint: mean survival time, dose: 25.0 mg/kg/injection, schedule: Q04DX002 (ip), vehicle: saline with Tween-80
[15] = endpoint: mean survival time, dose: 50.0 mg/kg/injection, schedule: Q04DX002 (ip), vehicle: saline with Tween-80
[16] = endpoint: mean survival time, dose: 100.0 mg/kg/injection, schedule: Q04DX002 (ip), vehicle: saline with Tween-80
[17] = endpoint: mean survival time, dose: 400.0 mg/kg/injection, schedule: Q04DX003 (ip), vehicle: saline with Tween-80

Measured: T/C

Nc1ncnc2c(C3OC(CO)C(O)C3O)[nH]nc12 (stereo unspecified)
inactive: [1] 108 % of control | [2] 120 % of control | [3] 113 % of control | [4] 101 % of control | [5] 109 % of control

O=C(/C=C\c1ccc([N+]([O-])=Nc2ccc(/C=C/C(=O)c3ccccc3)cc2)cc1)c1ccccc1
inactive: endpoint: mean survival time, dose: 100.0 mg/kg/injection, schedule: Q01DX001 (ip), vehicle: saline with Tween-80 102 % of control | endpoint: mean survival time, dose: 200.0 mg/kg/injection, schedule: Q01DX001 (ip), vehicle: saline with Tween-80 86 % of control | endpoint: mean survival time, dose: 400.0 mg/kg/injection, schedule: Q01DX001 (ip), vehicle: saline with Tween-80 98 % of control

O=C(CBr)CC(=O)Nc1ccccc1
inactive: endpoint: mean survival time, dose: 50.0 mg/kg/injection, schedule: Q04DX003 (ip), vehicle: saline with Tween-80 101 % of control | [4] 88 % of control

O=C1NC(CN2CCOCC2)C(=O)NC1CN1CCOCC1 (stereo unspecified)
inactive: endpoint: mean survival time, dose: 3.13 mg/kg/injection, schedule: Q01DX009 (ip), vehicle: water 105 % of control | endpoint: mean survival time, dose: 6.25 mg/kg/injection, schedule: Q01DX009 (ip), vehicle: water 105 % of control | [6] 103 % of control | [7] 100 % of control | [8] 101 % of control | [9] 106 % of control

CCCC(Br)C(=O)OCC (stereo unspecified)
inactive: [10] 96 % of control | [11] 93 % of control | [12] 93 % of control

CC1(C(=O)O)CC1(C)C(=O)O (stereo unspecified)
inactive: [11] 93 % of control | [12] 91 % of control | [13] 90 % of control

CS(=O)CSCC(N)C(=O)O (stereo unspecified)
inactive: [6] 107 % of control | [7] 100 % of control | [8] 102 % of control | [9] 102 % of control | endpoint: mean survival time, dose: 200.0 mg/kg/injection, schedule: Q01DX009 (ip), vehicle: water 100 % of control

CCCCCCCC(=O)Nc1cccc(C)c1C
inactive: [11] 105 % of control | [12] 89 % of control | [13] 104 % of control

CN1C(=O)CCSC1=S
inactive: [14] 94 % of control | [15] 105 % of control | [16] 105 % of control

COc1cc(C2c3cc4c(c(OC5OC6CO[C@@H](c7cccs7)OC6C(O)C5O)c3C[C@@H]3COC(=O)[C@@H]23)OCO4)cc(OC)c1O (stereo partly specified)
inactive: endpoint: median survival time, dose: 0.8 mg/kg/injection, schedule: Q01DX005 (ip), vehicle: saline with Tween-80 104 % of control | endpoint: median survival time, dose: 1.6 mg/kg/injection, schedule: Q01DX005 (ip), vehicle: saline with Tween-80 100 % of control | endpoint: median survival time, dose: 3.2 mg/kg/injection, schedule: Q01DX005 (ip), vehicle: saline with Tween-80 107 % of control | endpoint: median survival time, dose: 6.4 mg/kg/injection, schedule: Q01DX005 (ip), vehicle: saline with Tween-80 107 % of control

C[CH2][Sn]1([CH2]C)[O]C2C(CO)OC(n3cnc4c(N)ncnc43)C2[O]1 (stereo unspecified)
inactive: endpoint: mean survival time, dose: 1.56 mg/kg/injection, schedule: Q01DX005 (ip), vehicle: other 100 % of control | endpoint: mean survival time, dose: 3.13 mg/kg/injection, schedule: Q01DX005 (ip), vehicle: other 102 % of control | endpoint: mean survival time, dose: 6.25 mg/kg/injection, schedule: Q01DX005 (ip), vehicle: other 104 % of control | endpoint: mean survival time, dose: 12.5 mg/kg/injection, schedule: Q01DX005 (ip), vehicle: other 105 % of control and 106 % of control

C#CCN(Cc1ccc2nc(N)[nH]c(=O)c2c1)c1ccc(C(=O)NC(CCC(=O)O)C(=O)O)cc1 (stereo unspecified)
active: endpoint: median survival time, dose: 120.0 mg/kg/injection, schedule: Q01DX009 (ip), vehicle: sodium bicarbonate 156 % of control and 185 % of control | endpoint: median survival time, dose: 144.0 mg/kg/injection, schedule: Q01DX005 (ip), vehicle: water 162 % of control | endpoint: median survival time, dose: 400.0 mg/kg/injection, schedule: Q01DX005 (ip), vehicle: water 161 % of control
inactive: endpoint: median survival time, dose: 7.5 mg/kg/injection, schedule: Q01DX009 (ip), vehicle: sodium bicarbonate 109 % of control | endpoint: median survival time, dose: 15.0 mg/kg/injection, schedule: Q01DX009 (ip), vehicle: sodium bicarbonate 105 % of control and 109 % of control | endpoint: median survival time, dose: 25.0 mg/kg/injection, schedule: Q01DX005 (ip), vehicle: water 108 % of control | endpoint: median survival time, dose: 30.0 mg/kg/injection, schedule: Q01DX009 (ip), vehicle: sodium bicarbonate 117 % of control and 109 % of control | endpoint: median survival time, dose: 50.0 mg/kg/injection, schedule: Q01DX005 (ip), vehicle: water 109 % of control | endpoint: median survival time, dose: 86.4 mg/kg/injection, schedule: Q01DX005 (ip), vehicle: water 121 % of control

O=C1CC(c2ccccc2)OC(c2ccccc2Cl)C1 (stereo unspecified)
inactive: [4] 94 % of control | [5] 97 % of control | [17] 94 % of control

CN(C)C(=S)Oc1c(S(=O)(=O)F)ccc(Cl)c1Cl
inactive: [16] 91 % of control | endpoint: mean survival time, dose: 200.0 mg/kg/injection, schedule: Q04DX002 (ip), vehicle: saline with Tween-80 91 % of control | endpoint: mean survival time, dose: 400.0 mg/kg/injection, schedule: Q04DX002 (ip), vehicle: saline with Tween-80 97 % of control

ClC1CCC[N-]C1.ClC1CCC[N-]C1.O=C(O)CC(=O)O.[Pt+2] (stereo unspecified)
inactive: [2] 102 % of control | [3] 100 % of control | [10] 104 % of control | [11] 104 % of control | [12] 94 % of control

COc1ccc(NC(=O)Nc2ccc(C(C)C)cc2)cc1
inactive: [4] 93 % of control | [5] 91 % of control | [17] 95 % of control

ClC1=C(Cl)C(Cl)=C(Cl)C1=Cc1ccccc1
inactive: endpoint: mean survival time, dose: 3.12 mg/kg/injection, schedule: Q01DX009 (ip), vehicle: saline with Tween-80 101 % of control | [1] 104 % of control | [2] 105 % of control | [3] 106 % of control | [10] 105 % of control

COC(OC)c1[nH]c(=S)[nH]c(=O)c1Cc1cc(C)ccc1C
inactive: endpoint: mean survival time, dose: 100.0 mg/kg/injection, schedule: Q04DX003 (ip), vehicle: saline sonified 101 % of control | endpoint: mean survival time, dose: 200.0 mg/kg/injection, schedule: Q04DX003 (ip), vehicle: saline sonified 95 % of control | endpoint: mean survival time, dose: 400.0 mg/kg/injection, schedule: Q04DX003 (ip), vehicle: saline sonified 101 % of control

CCOC(=O)CC(=O)COC(=O)CC(=O)OCC
inactive: endpoint: mean survival time, dose: 12.5 mg/kg/injection, schedule: Q01DX009 (ip), vehicle: other 96 % of control | endpoint: mean survival time, dose: 25.0 mg/kg/injection, schedule: Q01DX009 (ip), vehicle: other 100 % of control | endpoint: mean survival time, dose: 50.0 mg/kg/injection, schedule: Q01DX009 (ip), vehicle: other 94 % of control | endpoint: mean survival time, dose: 100.0 mg/kg/injection, schedule: Q01DX009 (ip), vehicle: other 97 % of control | endpoint: mean survival time, dose: 200.0 mg/kg/injection, schedule: Q01DX009 (ip), vehicle: other 97 % of control

CCN(CC)Cc1cc2[nH]c3c4ccc(Cl)cc4ncc3c2cc1OC
inactive: endpoint: median survival time, dose: 6.25 mg/kg/injection, schedule: Q01DX009 (ip), vehicle: saline with Tween-80 102 % of control | endpoint: median survival time, dose: 12.5 mg/kg/injection, schedule: Q01DX009 (ip), vehicle: saline with Tween-80 102 % of control | endpoint: median survival time, dose: 25.0 mg/kg/injection, schedule: Q01DX009 (ip), vehicle: saline with Tween-80 103 % of control | endpoint: median survival time, dose: 50.0 mg/kg/injection, schedule: Q01DX009 (ip), vehicle: saline with Tween-80 111 % of control

CC(=O)Nc1cc(/C=C/c2ccccc2)ccc1S(=O)(=O)c1ccc(/C=C/c2ccccc2)cc1NC(C)=O
inactive: [11] 93 % of control | [12] 96 % of control | [13] 88 % of control

O=C(O)C(Cc1ccc(O)cc1)c1ccccc1 (stereo unspecified)
inactive: [11] 103 % of control | [12] 101 % of control | [13] 95 % of control

CCCCCCC(C)NCC(O)COc1cccc(C)c1 (stereo unspecified)
inactive: endpoint: mean survival time, dose: 12.5 mg/kg/injection, schedule: Q04DX002 (ip), vehicle: saline with Tween-80 101 % of control | [14] 96 % of control | [15] 93 % of control

NC(CC[Se]Cc1ccccc1)C(=O)O (stereo unspecified)
inactive: [1] 92 % of control | [2] 92 % of control | [3] 92 % of control | [4] 90 % of control | [5] 86 % of control

CCCCCCCCCCCCCCCCNC(=O)C[N+](C)(C)Cc1ccccc1
inactive: endpoint: mean survival time, dose: 5.0 mg/kg/injection, schedule: Q04DX003 (ip), vehicle: saline with Tween-80 100 % of control | endpoint: mean survival time, dose: 10.0 mg/kg/injection, schedule: Q04DX003 (ip), vehicle: saline with Tween-80 101 % of control

CCN(C)N=Nc1ccc(C(N)=O)cc1
active: endpoint: mean survival time, dose: 75.0 mg/kg/injection, schedule: Q01DX009 (ip), vehicle: Klucel (hydroxypropylcellulose) (HPC) 156 % of control
inactive: endpoint: mean survival time, dose: 18.75 mg/kg/injection, schedule: Q01DX009 (ip), vehicle: Klucel (hydroxypropylcellulose) (HPC) 103 % of control | endpoint: mean survival time, dose: 100.0 mg/kg/injection, schedule: Q01DX009 (oral), vehicle: saline with Tween-80 115 % of control | endpoint: mean survival time, dose: 200.0 mg/kg/injection, schedule: Q01DX009 (oral), vehicle: saline with Tween-80 120 % of control
